Reference: US20200140444A1, “INHIBITORS OF MUTANT ISOCITRATE DEHYDROGENASES AND COMPOSITIONS AND METHODS THEREOF” (IsoCure Biosciences Inc., priority 2017, published 2020)

What was measured:
[1] = target: IDH1 (R132H) (Homo sapiens, UniProt O75874, R132H); experiment: IDH enzyme assay, NADPH production or depletion measured by diaphorase/resazurin coupled detection; type: biochemical; conditions: read-out: Compound IC50 (M) IDH1 (R132H)
Procedure: (§1) Compounds were tested against 2 enzymes.
(§2) The production or depletion of NADPH by IDH enzymes was measured by diaphorase/resazurin coupled detection.

[2] = target: IDH1 (R132C) (Homo sapiens, UniProt O75874, R132C); experiment: as above; type: biochemical; conditions: read-out: Compound IC50 (M) IDH1 (R132C)
Procedure: as §1, §2

Sequence of IDH1 (R132H) (O75874 whole entry R132H): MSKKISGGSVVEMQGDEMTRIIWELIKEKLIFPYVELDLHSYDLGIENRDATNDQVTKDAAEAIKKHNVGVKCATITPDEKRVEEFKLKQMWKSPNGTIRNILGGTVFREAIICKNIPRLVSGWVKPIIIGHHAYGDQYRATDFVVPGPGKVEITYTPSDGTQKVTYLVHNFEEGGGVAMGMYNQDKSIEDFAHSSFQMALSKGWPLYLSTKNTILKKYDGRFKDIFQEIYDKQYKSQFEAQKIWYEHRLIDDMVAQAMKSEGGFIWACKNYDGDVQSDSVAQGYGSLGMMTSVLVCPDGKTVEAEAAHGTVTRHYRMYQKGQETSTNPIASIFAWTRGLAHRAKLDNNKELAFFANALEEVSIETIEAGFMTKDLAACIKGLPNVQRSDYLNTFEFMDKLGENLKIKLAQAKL
Sequence of IDH1 (R132C) (O75874 whole entry R132C): as the sequence (O75874 whole entry R132H) above, with H132C counted along it

IC50 [1] [M] | IC50 [2] [M] | SMILES
5.36e-07 | 3.1e-06 | Cc1cccc(NC(=O)c2nc(Cc3ccccc3)n3c2CN(C(=O)c2ccc[nH]2)CC3)c1 [Compound 5-1, 3-benzyl-7-(1H-pyrrole-2-carbonyl)-N-(m-tolyl)-5,6,7,8-tetrahydroimidazo[1,5-a]pyrazine-1-carboxamide]
1.64e-06 | – | C[C@H](O)c1cccc(NC(=O)c2nc(Cc3ccccc3)n3c2CN(C(=O)c2ccc[nH]2)CC3)c1 [Compound 5-2, (S)-3-benzyl-N-(3-(1-hydroxyethyl)phenyl)-7-(1H-pyrrole-2-carbonyl)-5,6,7,8-tetrahydroimidazo[1,5-a]pyrazine-1-carboxamide]
